# Reference: patent US5621113A, “4-[(thien-2-yl)methyl]-imidazole analgesics” (priority 1996, dated 1997)
# Where a name gives a salt, the structure may show the parent alone. Read-outs that look alike come from different tables or passages of the source.
# Assays:
# [1] = molecular target: T1, Alpha2D adrenergic receptor (Rattus norvegicus, UniProt P22909); test: Alpha2D adrenergic receptor binding assay (3H-para-aminoclonidine, rat cortex synaptic membranes); parameters: species or system rat (male Wistar)
# T1 construct: The cortex is dissected out and homogenized in 20 volumes of HEPES sucrose; from tissue; host or cells: rat brain cortex, synaptic membrane fraction (male Wistar rats, Charles River)
# T1 sequence (P22909 1-465): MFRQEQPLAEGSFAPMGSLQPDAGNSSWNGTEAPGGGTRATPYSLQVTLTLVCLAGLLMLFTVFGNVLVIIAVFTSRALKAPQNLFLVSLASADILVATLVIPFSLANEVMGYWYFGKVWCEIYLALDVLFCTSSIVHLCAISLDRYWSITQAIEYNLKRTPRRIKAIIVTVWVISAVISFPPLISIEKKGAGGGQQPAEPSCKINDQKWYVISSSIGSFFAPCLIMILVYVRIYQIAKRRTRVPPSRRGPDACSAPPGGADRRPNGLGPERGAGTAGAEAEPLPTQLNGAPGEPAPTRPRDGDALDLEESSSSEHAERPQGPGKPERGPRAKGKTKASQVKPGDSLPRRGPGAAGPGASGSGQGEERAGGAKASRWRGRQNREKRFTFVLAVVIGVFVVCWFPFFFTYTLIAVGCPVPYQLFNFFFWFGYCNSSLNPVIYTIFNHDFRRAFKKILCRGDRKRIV
# Method: Alpha2D adrenergic receptor binding assay
# Male, Wistar rats (150-250 g, VAF, Charles River, Kingston, N.Y.) are sacrificed by cervical dislocation and their brains removed and placed immediately in ice cold HEPES buffered sucrose. The cortex is dissected out and homogenized in 20 volumes of HEPES sucrose in a Teflon®-glass homogenizer. The homogenate is centrifuged at 1000 g for 10 min, and the resulting supernatant centrifuged at 42,000 g for 10 min. The resulting pellet is resuspended in 30 volumes of 3 mM potassium phosphate buffer, pH 7.5, preincubated at 25° C. for 30 min and recentrifuged. The resulting pellet is resuspended as described above and used for the receptor binding assay. Incubation is performed in test tubes containing phosphate buffer, 2.5 mM MgCl2, aliquots of the synaptic membrane fraction, the ligand ^3 H-para-aminoclonidine and test drug at 25° C. for 20 min. The incubation is terminated by filtration of the tube contents through glass fiber filter sheets. Following washing of the sheets with 10 mM HEPES buffer, the adhering radioactivity is quantified by liquid scintillation spectrometry.
# Binding of the test drug to the receptor is determined by comparing the amount of radiolabeled ligand bound in control tubes without drug to the amount of radiolabeled ligand bound in the presence of the drug. Dose-response data are analyzed with LIGAND, a nonlinear curve fitting program designed specifically for the analysis of ligand binding data. This assay is described by Simmons, R. M. A., and Jones, D. J., Binding of [^3 H-]prazosin and [^3 H-]p-aminoclonidine to α-Adrenoceptors in Rat Spinal Cord, Brain Research 445:338-349, 1988.
# [2] = system: acetylcholine bromide-induced abdominal constriction response; test: Mouse Acetylcholine Bromide-Induced Abdominal Constriction Assay; format: in vivo; conditions: for inhibition in vivo at 30 mg/kg / ED50: Mus musculus; for inhibition in vivo at 30 mg/kg: po; for ED50: 0.5 h, oral, 30 minutes before acetylcholine bromide 5.5 mg/kg i.p., dose producing 50% analgesia
# Method: Mouse Acetylcholine Bromide-Induced Abdominal Constriction Assay
# The mouse acetylcholine bromide-induced abdominal constriction assay, as described by Collier et al. in Brit. J. Pharmacol. Chem. Ther., 32: 295-310, 1968, with minor modifications was used to assess analgesic potency of the compounds herein. The test drugs or appropriate vehicle were administered orally (p.o.) and 30 minutes later the animal received an intraperitoneal (i.p.) injection of 5.5 mg/kg acetylcholine bromide (Matheson, Coleman and Bell, East Rutherford, N.J.). The mice were then placed in groups of three into glass bell jars and observed for a ten minute observation period for the occurrence of an abdominal constriction response (defined as a wave of constriction and elongation passing caudally along the abdominal wall, accompanied by a twisting of the trunk and followed by extension of the hind limbs). The percent inhibition of this response to a nociceptive stimulus (equated to % analgesia) was calculated as follows: The % Inhibition of response, i.e., % analgesia is equal to the difference between the number of control animals response and the number of drug-treated animals response times 100 divided by the number of control animals responding.
# At least 15 animals were used for control and in each of the drug treated groups. At least three doses were used to determine each dose response curve and ED50 (that dose which would produce 50% analgesia). The ED50 values and their 95% fiducial limits were determined by a computer assisted probit analysis.
# [3] = displacement of 3H-para-aminoclonidine, rat cortex membranes, 25° C., 20 min, read-out: Ki
# [4] = @ 30 mpk (route not given; method: orally)
Structure (SMILES),Ki [1],ED50 [2],also measured
"CC(C)=C(c1c[nH]cn1)c1sccc1C [drawing 24, reference compound]",,,"Ki [1, 3]: 335 nM; Mouse Abdominal Constriction % Inhibition [2, 4]: 47%"
"Brc1csc(Cc2c[nH]cn2)c1 [Cp-9, 4-[-(4-Bromothien-2-yl)methyl]1H-imidazole Hydrochloride]",1.4 nM,,inhibition in vivo at 30 mg/kg ([2]; @ 30 mpk/po): 80%
"Cc1csc(Cc2c[nH]cn2)c1C [Cp-5, 4-[(3,4-dimethylthien-2-yl)methyl]-1H-imidazole hydrochloride]",0.17 nM,,inhibition in vivo at 30 mg/kg ([2]; @ 30 mpk/po): 100%
"CC(c1c[nH]cn1)c1sccc1Br.Cl (stereo not shown) [Cp-4, 4-[1-(3-Bromothien-2-yl)-ethyl]-1H-imidazole Hydrochloride]",0.96 nM,2.1 mg/kg,
"Brc1csc(Cc2c[nH]cn2)c1Br [Cp-7, 4-[-(3,4-dibromothien-2-yl)methyl]-1H-imidazole fumarate]",0.43 nM,,inhibition in vivo at 30 mg/kg ([2]; @ 30 mpk/po): 80%
"CC(c1c[nH]cn1)c1scc(Br)c1Br (stereo not shown) [Cp-8, 4-[(3,4-dibromothien-2-yl)ethyl]-1H-imidazole fumarate]",0.07 nM,5.7 mg/kg,
Cc1ccc(Cc2c[nH]cn2)s1 [reference compound],3.6 nM,,"inhibition in vivo at 30 mg/kg [2, 4]: 33%"
"CC(C)=C(c1c[nH]cn1)c1sccc1C [drawing 25, reference compound]",,,"Ki [1, 3]: 1000 nM; Mouse Abdominal Constriction % Inhibition [2, 4]: 73%"
CCC(c1c[nH]cn1)c1sccc1C (stereo not shown) [reference compound],8.3 nM,,"inhibition in vivo at 30 mg/kg [2, 4]: 100%"
"Brc1ccsc1Cc1c[nH]cn1.Cl [Cp-3, 4-[(3-Bromothien-2-yl)methyl]-1H-imidazole Hydrochloride]",0.35 nM,1.7 mg/kg,
"Cc1ccsc1C(C)c1c[nH]cn1.Cl (stereo not shown) [Cp-2, 4-[1-(3-methylthien-2-yl)ethyl]-1H-imidazole hydrochloride]",2.1 nM,1.4 mg/kg,
"Cc1ccsc1Cc1c[nH]cn1.Cl [Cp-1, 4-[(3-Methylthien-2-yl)methyl]-1H-imidazole Hydrochloride]",0.45 nM,0.94 mg/kg,
"Cc1csc(C(C)c2c[nH]cn2)c1C (stereo not shown) [Cp-6, 4-[-(3,4-Dimethylthien-2-yl)ethyl]-1H-imidazole Fumarate]",0.75 nM,,inhibition in vivo at 30 mg/kg ([2]; @ 30 mpk/po): 87%
c1csc(Cc2c[nH]cn2)c1 [reference compound],8.7 nM,,"inhibition in vivo at 30 mg/kg [2, 4]: 60%"
